From US20080064692A1 come the findings set out here.

One experiment deals with Corticium sasakii. Conditions: rice cultivar Tai-Nong 67, protective spray, evaluated after 11 days.
A further experiment relates to Plasmopara viticola. Put plainly: Activity against Peronospora of grapevines caused by Plasmopara viticola. Conditions: vines cultivar Riesling, protective spray.

Where two headings read alike, the source gives them in different places.

Method for Corticium sasakii: (§1) 1% by weight of the emulsifier Uniperol® EL (wetting agent having emulsifying and dispersant action based on ethoxylated alkylphenols) was added to this solution, and the mixture was diluted with water to the desired concentration.
(§2) Evaluation is carried out by determining the infected leaf areas in percent. These percentages were converted into efficacies.
(§3) The efficacy (E) is calculated as follows using Abbot's formula:
(§4) α corresponds to the fungicidal infection of the treated plants in % and β corresponds to the fungicidal infection of the untreated (control) plants in %
(§5) An efficacy of 0 means that the infection level of the treated plants corresponds to that of the untreated control plants; an efficacy of 100 means that the treated plants are not infected.
The next day, oat grains infected with Corticium sasakii were placed into the pots (in each case 5 grains per pot). The plants were then placed in a chamber at 26° C. and maximum atmospheric humidity.
Method for Plasmopara viticola: as §1, §2, §3, §4, §5
The next day, the undersides of the leaves were inoculated with an aqueous zoospore suspension of Plasmopara viticola. The grapevines were then initially placed in a water-vapor-saturated chamber at 24° C. for 48 hours and then in a greenhouse at 20-30° C. for 5 days. After this period of time, the plants were again placed in a humid chamber for 16 hours to promote sporangiophore eruption. The extent of the development of the disease on the undersides of the leaves was then determined visually.

Turning to `CC1CCN(c2c(-c3c(F)cc(F)cc3F)c(Cl)nc3ncnn23)CC1` [I, 5-chloro-7-(4-methylpiperidin-1-yl)-6-(2,4,6-trifluorophenyl)-[1,2,4]triazolo[1,5-a]pyrimidine], the “Efficacy in % of the untreated control” value in the experiment with Corticium sasakii (4 ppm in the spray liquor) is given as 30%; in the experiment on Plasmopara viticola (4 ppm in the spray liquor) it was 21%; with Plasmopara viticola (16 ppm in the spray liquor) it was 44%.

As to `CO/N=C(/C1=NOCCO1)c1ccccc1Oc1ncnc(Oc2ccccc2Cl)c1F` [II (fluoxastrobin), {2-[6-(2-chlorophenoxy)-5-fluoropyrimidin-4-yloxy]phenyl}-(5,6-dihydro-[1,4,2]dioxazin-3-yl)methanon O-methyl oxime], the “Efficacy in % of the untreated control” value was found to be 0% in the experiment on Corticium sasakii (1 ppm in the spray liquor), 18% in the experiment with Corticium sasakii (16 ppm in the spray liquor), 21% in the experiment on Plasmopara viticola (4 ppm in the spray liquor) and 55% with Plasmopara viticola (16 ppm in the spray liquor).
